This is an account of results in patent US9968650B2, “Modified viral structural protein with antiviral activity” (priority 2011, dated 2018).

For one test, the target named is T1, Cp149 dimer interface (Hepatitis B virus genotype D subtype adw, UniProt P03147).
T1 construct: (Cp149), which is the N-terminal first 149 residues of the core protein
Particulars: cited from earlier work.

In a further test the test system is HIV-1 NL4-3. Particulars: cited from earlier work.
In the next test the target is HIV-1 CA (Human immunodeficiency virus type 1 group M subtype B, UniProt P12493). Particulars: cited from earlier work.
The target of another test is Gag (Human immunodeficiency virus type 1 group M subtype B, UniProt P12493). Particulars: cited from earlier work.
The subject of another test is HBV replication. The test is described as follows: Southern blot analysis of encapsidated HBV DNA in transfected Huh7 cells. The following applies: WT normalized to 100%, SD in parenthesis, * values at limit of detection. It counts as cell-based, Hepatitis B virus (HBV). The source says: (§1) All HBV plasmids used in cell culture experiments were derived from subtype ayw (Genbank accession no. V01460). These plasmids express pgRNA under the control of the cytomegalovirus (CMV) immediate early promoter. […] Plasmids C^WT or C^V124W express core protein but not P or envelope proteins and lack a functional encapsidation signal, GFP protein was expressed from a separate plasmid (provided by Bill Sugden, UW-Madison). Details of construction and sequence of any plasmid will be provided upon request.
The human hepatoma cell line Huh7 was used to study HBV replication. Cells were grown in 60 mm plates at 37° C. in 5% CO2, in DMEM/F12 medium supplemented with 5% FBS (Invitrogen, Grand Island, N.Y.). Cells were approximately 75% confluent or greater at time of transfection. DNA transfections were performed using calcium phosphate precipitation. For experiments using WT^P+C+ and V124W^P+C+, 5 μg of total plasmid mass was transfected. Each transfection experiments were repeated three times independently. For V124W titration experiment, 2 μg WT^P+C+ and varied C^V124W (0 to 8 μg) were used. A filler plasmid pCMV-Sport6 was used to keep the total plasmid mass at 10 μg. 0.125 μg of the GFP expression plasmid was used in every transfection. Typically, medium containing the calcium phosphate precipitate was removed after 16 hours, fresh medium added, and the cultures were grown for an additional 96 hours.
Nucleic acid from cytoplasmic capsids was isolated as described previously. Briefly, cells were lysed in a solution containing 50 mM Tris, 1 mM EDTA, 0.2% NP40, pH 8.0. Nuclei were pelleted via centrifugation and supernatant was collected. A fraction of this lysate was used for detection of core protein and GFP. The remainder of the cytoplasmic lysate was treated with 45 units of micrococcal nuclease (Worthington Biochemicals, Lakewood, N.J.) in the presence of 2 mM CaCl2 to digest plasmid DNA and unencapsidated pgRNA, followed by treatment with 0.4% SDS and 0.4 mg/ml Pronase® (Roche, Nutley, N.J.) to digest nucleocapsids and P protein. Encapsidated nucleic acids were extracted with 1:1 phenokchloroform, precipitated with ethanol and NaCl, and re-suspended in 30 μl of a solution of 10 mM Tris, 0.1 mM EDTA, pH 8.0.
An aliquot of viral DNA was electrophoresed through a 1.25% agarose gel. DNA was denatured and neutralized in situ in 0.5 N NaOH/1.5 M NaCl and 1 M Tris/1.5 M NaCl, respectively, followed by passive transfer to Hybond-N (GE® Lifesciences, Piscataway, N.J.) in 10×SSC. Viral DNA was detected on the membrane using an equimolar pool of oligonucleotides that detected (−) DNA. […] Levels of DNA were measured using the software ImageQuant® 5.2 (Molecular Dynamics). DNA levels were normalized to GFP levels as determined previously by western blot. […]

The next test relates to core protein. As to the kind of experiment: Western blot analysis of core protein level in transfected Huh7 cells. It counts as cell-based, Hepatitis B virus (HBV). Particulars: normalized to GFP, WT = 100%, SD in parenthesis.
Text: as §1
The human hepatoma cell line Huh7 was used to study HBV replication. Cells were grown in 60 mm plates at 37° C. in 5% CO2, in DMEM/F12 medium supplemented with 5% FBS (Invitrogen, Grand Island, N.Y.). […]
A fraction of cytoplasmic lysate was used to run a 15% SDS-PAGE, followed by transfer of proteins to PVDF-FL (Millipore®, Billerica, Mass.) in methanol transfer buffer (details of SDS-PAGE and transfer solutions provided upon request). […] Core protein was detected using a rabbit α-core antibody (Austral Biologicals®, San Ramon, Calif.) at a dilution of 1:500, and a goat α-rabbit IRDye800CW antibody (Li-Cor®) at a dilution of 1:10,000. GFP was detected using a mouse α-GFP antibody (Santa Cruz® Biotechnology, San Cruz, Calif.) at a dilution of 1:500, and a goat α-mouse IRDye680LT antibody (Li-Cor®) at a dilution of 1:10,000. […] Core levels were normalized to GFP levels for quantitation. […]

Test [1] has as its system HBV capsid assembly. As to the kind of experiment: Size exclusion chromatography of equilibrium capsid assembly and calculation of thermodynamic parameters. It counts as biochemical, Hepatitis B virus (HBV). Particulars: 100 mM NaCl, 23° C.; for pseudo-critical concentration: 72 h equilibration. As to the method: (§2) The adyw strain of HBV Cp149-pET11c (Genbank accession no. J02202.1) construct was mutated to Cp149-V124W (GTG to TGG) with the QuikChange mutagenesis kit (Stratagene). […] V124W purification was performed as previously described for HBV Cp149-WT purification. Based on the biochemical studies in this paper, in the re-assembly step, using 50 mM NaCl instead of 500 mM NaCl to induce re-assembly yielded more capsid with slightly more aggressive assembly activity. Protein concentration was determined using an extinction coefficient of 70,025 M^−1 cm^−1 per V124W dimer at 280 nm, calculated by ExPASy Proteomics Server based on the protein sequence and assuming one disulfide bond per dimer WT dimer was purified exactly as previously described. The extinction coefficient of WT dimer is 60,900 M^−1 cm^−1 at 280 nm. Before assembly studies, frozen protein stock was dialyzed into 50 mM HEPES, pH 7.5 for at least 2×2 h at 4° C. The standard assembly buffer was 50 mM HEPES, pH 7.5 at 23° C. with varied NaCl concentrations. Protein stock was treated with 1% to 5% β-mercaptoethanol for 20 min before assembly.
WT and V124W at varied concentrations (WT, 40 to 80 μM; V124W, 2.5 to 30 μM), were induced to assemble at 100 mM NaCl to equilibration for 72 h or longer at 23° C. […] Capsid and dimer concentrations in assembly reactions were determined by size exclusion chromatography (SEC) through a 21 ml Superose 6 column. ΔGcontact and KD,apparent were calculated as previously described. KD,apparent was the average of the equilibrium dimer concentrations which were nearly constant.

Test [2] has as its target T2, HBV capsid assembly (Hepatitis B virus genotype D subtype adw, UniProt P03147).
T2 construct: (Cp149), which is the N-terminal first 149 residues of the core protein; made in house; host or cells: E. coli BL21 (DE3) (printed for V124W; WT 'as previously described')
The test is described as follows: Extent of core protein assembly without HAP12 by size exclusion chromatography. It counts as biochemical. Here is the method: as §2
(§3) To test for resistance to HAP molecules, 10 μM protein with varied HAP12 concentrations (2.5 to 60 μM) was induced to assemble at 50 mM NaCl. Before adding 10× NaCl, protein was incubated with HAP12 at 23° C. for 20 min. Each reaction was incubated at 23° C. for 24 h to equilibrate. Under these conditions, 24 h was long enough to allow reactions to reach equilibrium. Capsid, abnormal structures and dimer concentrations were determined by SEC as described above.

The test system of test [3] is HBV capsid assembly. The description is as above. The following applies: 10 μM protein, 50 mM NaCl, 23° C., without HAP12. It counts as biochemical, Hepatitis B virus (HBV). As to the method:
as §2, §3

For test [4], the system named is HBV capsid assembly. As to the kind of experiment: 90° light scattering assembly kinetics of core protein alone. Particulars: 10 μM protein, 50 mM NaCl, first 800 seconds. It counts as biochemical, Hepatitis B virus (HBV). Here is the method:
Light scattering was monitored at 90° using 400 inn excitation and emission wavelength with a Photon Technology International fluorometer for at least 800 seconds at 23° C. 10 μM protein (WT or V124W) was incubated with or without 20 μM HAP12 for 20 min prior to adding equal volume of 2× NaCl to a final concentration of 50 mM NaCl. Each sample was repeated 3-4 times independently.
90° Light scattering is a well-established method to monitor the virus assembly kinetics because of the significant difference between the size of the capsid and the dimer. HBV core protein assembly is induced by increasing the ionic strength in vitro, which is achieved by adding NaCl to the reaction system. Higher ionic strength leads to assembly faster and further due to the stronger association energy between dimers.

“Also recorded” adds a separate entry of the source.

T2 sequence (P03147 1-149): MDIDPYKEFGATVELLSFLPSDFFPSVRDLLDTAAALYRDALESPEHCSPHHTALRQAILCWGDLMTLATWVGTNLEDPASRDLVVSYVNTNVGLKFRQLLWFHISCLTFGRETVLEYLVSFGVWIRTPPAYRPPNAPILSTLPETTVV
T1 sequence (P03147 1-149): as above

Regarding `COC(=O)C1=C(C)NC(c2ncc(F)cc2F)=N[C@H]1c1ccc(F)cc1Cl` [BAY41-4109], the “HAP stoichiometry necessary to generate aberrant structures” value at Cp149 dimer interface (pure BAY41-4109) is listed as “greater than one HAP per two dimers”.

Regarding `Cc1[nH]c2ccccc2c1CC(=O)N[C@@H](Cc1ccccc1)C(=O)N(C)c1ccccc1` [PF-3450074], the “antiviral activity against HIV” value in the test on HIV-1 NL4-3 is recorded as “inhibit HIV replication”. For the same molecule, at HIV-1 CA, the “rate of CA multimerization” value is given as “significant increase”. Further, at Gag, the Gag association result is recorded as “does not inhibit”.

For the molecule “WT: wild type HBV core protein; Cp149 is the N-terminal 149-residue assembly domain, used as control”, in the test with HBV replication, the dlDNA was 100% (27%), the ssDNA is 100% (19%) and the “total DNA” value is on record as 100% (19%). The rcDNA with HBV replication (three independent transfections) is listed as 100% (46%). Also, the core protein in the test on core protein is recorded as 100% (39%). In the test on HBV capsid assembly [1], the ΔGcontact is -2.74 ± 0.04 kcal/mol and the pseudo-critical concentration result is “about 43 μM”. In addition, in the test on HBV capsid assembly [1] (listed as wild type Cp149), the pseudo-critical concentration was 43.6 ± 5.1 µM and the ΔGcontact is -2.74 ± 0.04 kcal/mol. Also, at HBV capsid assembly [1] (read-out: KD, apparent), the Kd was 43.3 ± 4.97 µM. In addition, the “capsid formation at 150 mM NaCl” value with HBV capsid assembly [2] (10 μM protein, 150 mM NaCl (data not shown)) is listed as “did not observe any capsid formation”. For the same molecule, the “concentration needed to see any assembly” value with HBV capsid assembly [2] (under similar conditions (NaCl-induced assembly, FIG. 10)) stood at 45 µM. For the same molecule, in the test with HBV capsid assembly [3], the “extent of assembly (dimers assembled into capsids)” value was “no assembly”. The “extent of assembly (dimers assembled into capsids)” value in the test on HBV capsid assembly [3] (listed as wild type Cp149) was “does not assemble at all; also recorded: no assembly”. The “assembly kinetics without HAP12 (in words)” value with HBV capsid assembly [4] was “did not assemble”. In the test with Cp149 dimer interface (150 mM NaCl 37° C., without HAP), the “association energy at the dimer interface” value is -3.87 kcal/mol.
